pIC50: −log10 of the molar value.

The first assay deals with T1, Pol theta (residues 1819-2590) (Homo sapiens, UniProt O75417).
T1 construct: Pol theta polymerase domain (residues 1819-2590) at a final concentration of 4 nM
T1 sequence (O75417 1819-2590): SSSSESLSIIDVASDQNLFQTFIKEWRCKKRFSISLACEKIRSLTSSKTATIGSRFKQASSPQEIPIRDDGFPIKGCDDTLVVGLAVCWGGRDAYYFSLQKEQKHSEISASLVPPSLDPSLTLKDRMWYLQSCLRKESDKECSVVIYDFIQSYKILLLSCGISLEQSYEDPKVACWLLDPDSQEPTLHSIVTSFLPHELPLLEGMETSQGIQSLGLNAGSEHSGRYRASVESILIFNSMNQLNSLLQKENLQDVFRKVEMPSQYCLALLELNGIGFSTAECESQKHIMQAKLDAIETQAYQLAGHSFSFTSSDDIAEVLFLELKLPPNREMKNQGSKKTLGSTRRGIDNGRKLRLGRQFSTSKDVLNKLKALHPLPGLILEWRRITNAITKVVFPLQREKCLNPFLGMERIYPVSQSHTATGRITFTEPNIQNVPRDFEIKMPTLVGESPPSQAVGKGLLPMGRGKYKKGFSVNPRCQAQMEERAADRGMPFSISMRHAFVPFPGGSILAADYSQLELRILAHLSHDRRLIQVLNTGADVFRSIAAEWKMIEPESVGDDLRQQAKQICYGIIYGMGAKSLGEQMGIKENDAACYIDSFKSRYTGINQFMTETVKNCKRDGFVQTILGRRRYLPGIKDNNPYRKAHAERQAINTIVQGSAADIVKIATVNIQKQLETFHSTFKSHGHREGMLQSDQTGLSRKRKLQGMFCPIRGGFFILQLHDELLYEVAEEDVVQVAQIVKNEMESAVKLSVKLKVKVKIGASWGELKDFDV
The assay can be described thus: PPi assay (inhibition of polymerase activity of Pol theta, PPiLite luminescence). Format: biochemical. As to conditions: Pol theta 2.8 nM; luminescence kinetic mode 90 min. The procedure: The ability of the compounds of Formula (I) or Formula (II) to inhibit polymerase activity of Pol theta was determined using the PPi assay as set forth below.
A mixture of template DNA strand (SEQ ID NO:4: 5′ ATTACTGACCTCATACTTCTGCCCTTCCATGTTCTGTGCCCTCCTTCC 3′) and primer DNA strand (SEQ ID NO:5: 5′ GGA AGG AGG GCA CAG AAC 3′) was annealed in 10 mM Tris-HCl pH 8.0, […] buffer to form the primed DNA substrate. A 10-point dilution series of compounds were used in a 384 well format for the inhibition assay. Pol theta (residues 1819-2590) (2.8 nM) in assay buffer (20 mM Tris-HCl pH 7.8, 50 mM KCl, 10 mM MgCl2, 1 mM DTT, 0.01% BSA, 0.01% Tween-20) was transferred to the test wells (10 uL), except for the low control wells. The plate was then incubated at room temperature for 15 mins. An equal volume (10 μL) of dNTP substrate (40 μM) and primed DNA substrate (800 nM) in assay buffer was added to all the test wells. 20 μL of PPi detection reagent (PPiLite inorganic pyrophosphate assay, Lonzo) was then added to all test wells. The plate was then centrifuged at 1000 rpm for 1 min. The reaction was monitored in a Tecan M1000 Pro plate reader in luminescence kinetic mode for 90 min. The high control (DMSO with enzyme) with high luminescence represents no inhibition of the polymerase reaction while the low control (DMSO with buffer) with low luminescence represents full inhibition of the polymerase activity. Slope of the reaction progress curves were used to calculate the rate of polymerization. The rates were used to determine the percent inhibition using a four-parameter inhibition model to generate IC50, Hill slope, maximum inhibition, and minimum inhibition.
As to `O=C([C@@H]1CCCN1c1cc(C(F)(F)F)cc(C(F)(F)F)n1)N(c1ccc(F)cc1)C1COC1` [1.030, (S)-1-(4,6-bis(trifluoromethyl)pyridin-2-yl)-N-(4-fluorophenyl)-N-(oxetan-3-yl)pyrrolidine-2-carboxamide], the pIC50 (in general, −log10 of the IC50, conventionally taken in molar units) was at least 6.70.

`CN(C(=O)[C@@H]1[C@H](O)CCN1c1cc(C(F)(F)F)cc(C(F)(F)F)n1)c1ccc(F)cc1` [1.029, (2S,3R)-1-(4,6-bis(trifluoromethyl)pyridin-2-yl)-N-(4-fluorophenyl)-3-hydroxy-N-methylpyrrolidine-2-carboxamide] gave a pIC50 of at least 6.70. The same measure, in the same setting: the value for `O=C([C@@H]1CCCN1c1cc(C(F)(F)F)cc(C(F)(F)F)n1)N(c1ccccc1)c1ccccc1` [1.028, (S)-1-(4,6-bis(trifluoromethyl)pyridin-2-yl)-N,N-diphenylpyrrolidine-2-carboxamide] was 5.00 to 6.00. Same read-out and setting: the figure for `C[C@H]1CC[C@@H](C(=O)N(C)c2ccc(F)cc2)N1c1cc(C(F)(F)F)cc(C(F)(F)F)n1` [1.021, (2S,5S)-1-(4,6-bis(trifluoromethyl)pyridin-2-yl)-N-(4-fluorophenyl)-N,5-dimethylpyrrolidine-2-carboxamide] is at least 6.70; for `CN(C(=O)[C@@H]1CCN1c1nc(C(F)(F)F)cc(C(F)(F)F)c1C#N)c1ccc(F)cc1` [1.025, (S)-1-(3-cyano-4,6-bis(trifluoromethyl)pyridin-2-yl)-N-(4-fluorophenyl)-N-methylazetidine-2-carboxamide] it is at least 6.70.

On to `Fc1ccc(-c2cccnc2[C@@H]2CCCN2c2cc(C(F)(F)F)cc(C(F)(F)F)n2)cc1` [1.026, (S)-2-(2-(3-(4-fluorophenyl)pyridin-2-yl)pyrrolidin-1-yl)-4,6-bis(trifluoromethyl)pyridine], for which the pIC50 was at least 6.70.

Another assay concerns the target T2, Pol theta polymerase domain (residues 1819-2590) (Homo sapiens, UniProt O75417).
T2 construct: Pol theta polymerase domain (residues 1819-2590) at a final concentration of 4 nM
T2 sequence (O75417 1819-2590): T1 sequence (O75417 1819-2590)
The assay can be described thus: Primer extension assay (inhibition of polymerase activity of Pol theta, molecular beacon fluorescence). As to conditions: Pol theta polymerase domain 4 nM; fluorescence change over 30 min. Format: biochemical. The method, then: The ability of the compounds of Formula (I) or Formula (II) to inhibit polymerase activity of Pol theta was determined using the primer extension assay as set forth below.
A mixture of 20 uL of Pol theta polymerase domain (residues 1819-2590) at a final concentration of 4 nM in assay buffer (20 m M TRIS, pH 7.80, 50 mM KCl, 10 mM MgCl2, 1 mM DTT, 0.01% BSA, 0.01% Tween20) was added to test compounds (11-point dilution series of test compounds) except the low control wells without test compounds. The above enzyme and test compound inhibitor mixture was then incubated at room temperature for 15 min. An equal volume (20 μl) of dNTP substrate mixture (48 μM) and primed molecular beacon DNA (obtained by annealing template SEQ ID NO:2: (5′-CCTTCCTCCCGTGTCTTG-TACCTTCCCGTCA-GGAGGAAGG-3′) with 5′-TAMRA and 3′-BHQ and primer DNA (SEQ ID NO:3; 5′-GACGGGAAGG-3′) in 10 mM Tris-HCl pH 8.0, 100 mM NaCl buffer) (96 nM) in assay buffer was added to all the test wells. The inhibition activity was measured by monitoring the fluorescence change over 30 min at 535 nm upon excitation at 485 nm. The high control (DMSO with enzyme) with high fluorescence intensity represents no inhibition of polymerase reaction while the low control (DMSO with buffer) with low fluorescence intensity represents full inhibition of polymerase activity. Slope of the reaction progress curves were used to calculate the rate of polymerization. The rates were used to determine the percent inhibition using a four-parameter inhibition model to generate IC50, Hill slope and max inhibition.
`O=C([C@@H]1CCCN1c1cc(C(F)(F)F)cc(C(F)(F)F)n1)N(c1ccc(F)cc1)C1CC1` [1.012, (S)-1-(4,6-bis(trifluoromethyl)pyridin-2-yl)-N-cyclopropyl-N-(4-fluorophenyl)pyrrolidine-2-carboxamide] showed a pIC50 of at least 6.70. In turn, `CN(C(=O)[C@@H]1CCCN1c1cc(C(F)(F)F)cc(C(F)(F)F)n1)c1ccncc1` [1.011, (S)-1-(4,6-bis(trifluoromethyl)pyridin-2-yl)-N-methyl-N-(pyridin-4-yl)pyrrolidine-2-carboxamide] gave a pIC50 of at least 6.70. The same measure, in the same setting: the figure for `CN(C(=O)C1CCN1c1cc(C(F)(F)F)cc(C(F)(F)F)n1)c1ccc(F)cc1` (stereo not shown) [1.005, 1-(4,6-bis(trifluoromethyl)pyridin-2-yl)-N-(4-fluorophenyl)-N-methylazetidine-2-carboxamide] is at least 6.70; for `CN(C(=O)[C@@H]1CCCN1c1cc(C(F)(F)F)cc(C(F)(F)F)n1)c1ccc2occc2c1` [1.010, (S)-N-(benzofuran-5-yl)-1-(4,6-bis(trifluoromethyl)pyridin-2-yl)-N-methylpyrrolidine-2-carboxamide] it is at least 6.70; for `CN(C(=O)[C@@H]1CCCN1c1cc(C(F)(F)F)cc(C(F)(F)F)n1)c1ccc(Br)cc1` [1.009, (S)-1-(4,6-bis(trifluoromethyl)pyridin-2-yl)-N-(4-bromophenyl)-N-methylpyrrolidine-2-carboxamide] it is at least 6.70. As for `Fc1ccc(-c2cccnc2C2CCCN2c2cc(C(F)(F)F)cc(C(F)(F)F)n2)cc1` (stereo not shown) [1.008, 2-(2-(3-(4-fluorophenyl)pyridin-2-yl)pyrrolidin-1-yl)-4,6-bis(trifluoromethyl)pyridine], the pIC50 was at least 6.70. Compound `CN(C(=O)C1CCCN1c1cc(C(F)(F)F)cc(C(F)(F)F)n1)c1ccc(F)cc1` (stereo not shown) [1.001, 1-(4,6-bis(trifluoromethyl)pyridin-2-yl)-N-(4-fluorophenyl)-N-methylpyrrolidine-2-carboxamide] had a pIC50 of at least 6.70. The compound `CN(C(=O)[C@@H]1C[C@@H](O)CN1c1cc(C(F)(F)F)cc(C(F)(F)F)n1)c1ccc(F)cc1` [1.016, (2S,4R)-1-(4,6-bis(trifluoromethyl)pyridin-2-yl)-N-(4-fluorophenyl)-4-hydroxy-N-methylpyrrolidine-2-carboxamide] gave a pIC50 of at least 6.70.

In the case of `CN(C(=O)[C@@H]1CCCN1c1cccc(C(F)(F)F)n1)c1ccc(F)cc1` [1.015, (S)-N-(4-fluorophenyl)-N-methyl-1-(6-(trifluoromethyl)pyridin-2-yl)pyrrolidine-2-carboxamide], the negative-log IC50 (pIC50) is at least 6.70. `CN(C(=O)C1CCCN1c1ccccc1)c1ccccc1` (stereo not shown) [1.004, N-methyl-N,1-diphenylpyrrolidine-2-carboxamide] had a pIC50 of 5.00 to 6.00. Still for that read-out and setting: the value for `CN(C(=O)C1CCCCN1c1cc(C(F)(F)F)cc(C(F)(F)F)n1)c1ccc(F)cc1` (stereo not shown) [1.007, 1-(4,6-bis(trifluoromethyl)pyridin-2-yl)-N-(4-fluorophenyl)-N-methylpiperidine-2-carboxamide] was at least 6.70; that for `CN(C(=O)[C@@H]1CCCN1c1cc(C(F)(F)F)cc(C(F)(F)F)n1)c1cccc(C#N)c1` [1.018, (S)-1-(4,6-bis(trifluoromethyl)pyridin-2-yl)-N-(3-cyanophenyl)-N-methylpyrrolidine-2-carboxamide] was at least 6.70; that for `Cc1cc(C)nc(N2CCC[C@H]2C(=O)N(C)c2ccc(F)cc2)c1` [1.031, (S)-1-(4,6-dimethylpyridin-2-yl)-N-(4-fluorophenyl)-N-methylpyrrolidine-2-carboxamide] was 6.30 to 6.70. Compound `CN(C(=O)C1CCCN1c1nc(C(F)(F)F)cc(C(F)(F)F)n1)c1ccc(F)cc1` (stereo not shown) [1.017, 1-(4,6-bis(trifluoromethyl)pyrimidin-2-yl)-N-(4-fluorophenyl)-N-methylpyrrolidine-2-carboxamide] gave a pIC50 of at least 6.70. Turning to `CN(C(=O)[C@@H]1C[C@H](O)CN1c1cc(C(F)(F)F)cc(C(F)(F)F)n1)c1ccc(F)cc1` [1.013, (2S,4S)-1-(4,6-bis(trifluoromethyl)pyridin-2-yl)-N-(4-fluorophenyl)-4-hydroxy-N-methylpyrrolidine-2-carboxamide], the pIC50 is at least 6.70.

Compound `CN(C(=O)[C@@H]1CCCN1c1cc(C(F)(F)F)ccn1)c1ccc(F)cc1` [1.014, (S)-N-(4-fluorophenyl)-N-methyl-1-(4-(trifluoromethyl)pyridin-2-yl)pyrrolidine-2-carboxamide] gave a pIC50 of at least 6.70.

For the origin of these results see patent publication US20230303510A1, “CYCLIZED ACETAMIDO DERIVATIVES AS DNA POLYMERASE THETA INHIBITORS” (Ideaya Biosciences, Inc., priority 2020, published 2023).
